{
  "source": "ChEMBL document CHEMBL3727361",
  "about": "“Nitrogen bicyclic compounds as inhibitors for Scyl1 and Grk5” (2014)",
  "data": [
    {"test_system": "Beta-TC6", "experiment": "Increase in insulin release in mouse BetaTC6 cells assessed as relative insulin release activity at 10 uM incubated for 2 to 4 hrs by FRET based HTRF assay relative to sunitinib", "type": "functional", "values": [
      {"smiles": "COc1cc(-c2cnc3cnc(-c4ccc(NCCN5CCOCC5)nc4)cn23)ccc1O", "Activity": "20%"},
      {"smiles": "Nc1ccc(-c2cn3c(-c4ccc5c(c4)OCO5)cnc3cn2)cn1", "Activity": "10%"},
      {"smiles": "c1cnn2c(-c3ccc4c(c3)CCO4)cnc2c1", "Activity": "10%"},
      {"smiles": "COc1cc(OC)cc(-c2cn3c(-c4ccc5c(c4)OCO5)cnc3cn2)c1", "Activity": "50%"},
      {"smiles": "CN(C)CCCOc1ccc(-c2cn3c(-c4ccc(N(C)C)cc4)cnc3cn2)cn1", "Activity": "50%"},
      {"smiles": "CN(C)c1cccc(-c2cnc3cnc(-c4ccncc4)cn23)c1", "Activity": "20%"},
      {"smiles": "C(=C\\c1cnc2cccnn12)/c1ccccc1", "Activity": "20%"},
      {"smiles": "CC(=O)Nc1cccc(-c2ccc3nnc(-c4ccccc4)n3c2)c1", "Activity": "50%"},
      {"smiles": "CC(=O)c1cccc(-c2cnc3cnc(-c4ccc(C(=O)NCCN(C)C)cc4)cn23)c1", "Activity": "20%"},
      {"smiles": "Cc1ccccc1-c1cn2c(-c3ccc(CCC(=O)O)cc3)cnc2cn1", "Activity": "20%"},
      {"smiles": "CC(=O)Nc1cccc(-c2cnc3ccc(NCc4ccc(F)cc4)nn23)c1", "Activity": "10%"},
      {"smiles": "OCc1ccc(-c2cn3c(-c4cccc(F)c4)cnc3cn2)cc1", "Activity": "20%"},
      {"smiles": "COc1ccccc1-c1ccc2ncc(-c3ccc(F)c(Cl)c3)n2n1", "Activity": "20%"},
      {"smiles": "OCC#Cc1ccc2nnc(-c3ccc4c(c3)OCO4)n2c1", "Activity": "20%"},
      {"smiles": "Nc1cccc(-c2cn3c(-c4cccc(F)c4)cnc3cn2)c1", "Activity": "20%"},
      {"smiles": "CC(=O)c1cccc(-c2cnc3cnc(-c4cccs4)cn23)c1", "Activity": "50%"},
      {"smiles": "Oc1cccc(-c2cnc3ccc(-c4ccc(F)cc4)nn23)c1", "Activity": "20%"},
      {"smiles": "NC(=O)c1ccc(-c2ccc3ncc(-c4ccccc4)n3n2)cc1", "Activity": "20%"},
      {"smiles": "Nc1ccc(-c2cnc3ccc(Cc4ccccc4)nn23)cn1", "Activity": "20%"},
      {"smiles": "c1csc(-c2cn3c(-c4cccs4)cnc3cn2)c1", "Activity": "50%"},
      {"smiles": "COc1cc(OC)cc(-c2cnc3cnc(-c4cccc(OC(C)C)c4)cn23)c1", "Activity": "20%"},
      {"smiles": "OCc1ccc(-c2ccc3nnc(-c4ccncc4)n3c2)cc1", "Activity": "20%"},
      {"smiles": "COc1cncc(-c2ccc3nnc(-c4cccc(OC(F)(F)F)c4)n3c2)c1", "Activity": "50%"},
      {"smiles": "COc1cccc(CC(=O)Nc2cnc3cnc(-c4ccc5[nH]ccc5c4)cn23)c1", "Activity": "10%"},
      {"smiles": "c1csc(-c2cn3c(-c4ccsc4)cnc3cn2)c1", "Activity": "50%"},
      {"smiles": "COc1ccc(-c2cnc3cnc(-c4ccc(CO)cc4)cn23)cc1", "Activity": "50%"},
      {"smiles": "COc1cccc(CC(=O)Nc2cnc3cnc(-c4ccc(Oc5ccccc5)cc4)cn23)c1", "Activity": "10%"},
      {"smiles": "c1cncc(-c2cnc3cnc(-c4ccc(N5CCOCC5)cc4)cn23)c1", "Activity": "20%"},
      {"smiles": "Clc1ccccc1-c1ccc2ncc(-c3cccs3)n2n1", "Activity": "10%"},
      {"smiles": "c1cc(-c2nnc3ccc(-c4ccc(N5CCOCC5)cc4)cn23)ccn1", "Activity": "20%"},
      {"smiles": "OCc1cccc(-c2cnc3cnc(-c4ccccc4)cn23)c1", "Activity": "20%"},
      {"smiles": "CN(C)c1ccc(-c2ccc3nnc(-c4cccnc4)n3c2)cc1", "Activity": "50%"},
      {"smiles": "FC(F)(F)c1cccc(C#Cc2ccc3nnc(-c4ccncc4)n3c2)c1", "Activity": "10%"},
      {"smiles": "O=C(NCCO)c1cccc(-c2cn3c(-c4cccs4)cnc3cn2)c1", "Activity": "20%"},
      {"smiles": "CC(C)N1CCN(c2ccc(-c3cn4c(-c5ccc(C(=O)NC6CC6)cc5)cnc4cn3)cc2)CC1", "Activity": "20%"},
      {"smiles": "Clc1cccc(-c2ccc3nnc(-c4ccc5c(c4)OCO5)n3c2)c1", "Activity": "20%"},
      {"smiles": "CC(C(=O)Nc1cnc2cnc(-c3ccc4c(c3)OCO4)cn12)c1ccccc1", "note": "(centres undefined)", "Activity": "20%"},
      {"smiles": "Clc1cccc(-c2cn3c(-c4ccc5c(c4)OCO5)cnc3cn2)c1", "Activity": "50%"},
      {"smiles": "Fc1cccc(-c2cn3c(-c4ccccc4)cnc3cn2)c1", "Activity": "20%"},
      {"smiles": "COc1cc(-c2cnc3ccc(-c4cccc(OC(F)(F)F)c4)nn23)ccc1O", "Activity": "10%"},
      {"smiles": "Fc1cccc(-c2cnc3cnc(-c4cccs4)cn23)c1", "Activity": "20%"},
      {"smiles": "COc1cc(OC)cc(-c2cn3c(-c4cccs4)cnc3cn2)c1", "Activity": "20%"},
      {"smiles": "c1csc(-c2cnc3cnc(-c4cc5ccccc5s4)cn23)c1", "Activity": "50%"},
      {"smiles": "OCc1ccc(-c2cn3c(-c4cccc(Cl)c4)cnc3cn2)cc1", "Activity": "20%"},
      {"smiles": "CC(=O)Nc1cccc(-c2cn3c(-c4ccc(F)c(Cl)c4)cnc3cn2)c1", "Activity": "20%"},
      {"smiles": "COc1cccc(-c2cn3c(-c4cccc(O)c4)cnc3cn2)c1F", "Activity": "20%"},
      {"smiles": "CN(C)CCCOc1ccc(-c2cn3c(-c4cccc(N(C)C)c4)cnc3cn2)cn1", "Activity": "20%"},
      {"smiles": "Fc1cccc(-c2cnc3cnc(-c4ccccc4)cn23)c1", "Activity": "20%"},
      {"smiles": "CN1CCN(c2ccc(-c3cnc4cccnn34)cn2)CC1", "Activity": "10%"},
      {"smiles": "CN(C)C(=O)c1ccc(-c2cnc3cnc(-c4ccc5c(ccn5C)c4)cn23)cc1", "Activity": "20%"},
      {"smiles": "CS(=O)(=O)Nc1cccc(-c2cn3c(-c4cccs4)cnc3cn2)c1", "Activity": "20%"},
      {"smiles": "O=C(O)CCc1ccc(-c2cnc3cnc(-c4cccc(Cl)c4)cn23)cc1", "Activity": "20%"},
      {"smiles": "CN(C)c1ccc(-c2cnc3cnc(-c4ccc(O)cc4)cn23)cc1", "Activity": "50%"},
      {"smiles": "CN(C)CC#Cc1ccc2nnc(-c3ccccc3)n2c1", "Activity": "10%"},
      {"smiles": "Oc1ccc(-c2cn3c(-c4cccs4)cnc3cn2)cc1", "Activity": "50%"},
      {"smiles": "c1ccc(-c2cn3c(-c4ccc5c(c4)OCO5)cnc3cn2)cc1", "Activity": "50%"},
      {"smiles": "COCCNc1ccc2ncc(-c3ccc(C(=O)Nc4ccc(OC)cc4)cc3)n2n1", "Activity": "20%"},
      {"smiles": "Nc1cccc(-c2ccc3nnc(-c4cccc(Cl)c4)n3c2)c1", "Activity": "50%"},
      {"smiles": "CC(=O)c1ccc(-c2cn3c(-c4ccc(C(=O)NC5CC5)cc4)cnc3cn2)s1", "Activity": "20%"},
      {"smiles": "COc1cc(-c2ccc3ncc(-c4cccs4)n3n2)ccc1O", "Activity": "20%"},
      {"smiles": "CN(C)c1ccc(-c2cnc3cnc(-c4ccc(NCCN5CCOCC5)nc4)cn23)cc1", "Activity": "50%"},
      {"smiles": "CC(=O)Nc1cccc(-c2ccc3nnc(-c4ccc5nccnc5c4)n3c2)c1", "Activity": "50%"},
      {"smiles": "CN(C)c1ccc(-c2cnc3cnc(-c4cccc(C(N)=O)c4)cn23)cc1", "Activity": "20%"},
      {"smiles": "Cn1ccc2cc(-c3cn4c(-c5ccc6ncccc6c5)cnc4cn3)ccc21", "Activity": ">=100%"},
      {"smiles": "c1coc(-c2cn3c(-c4ccsc4)cnc3cn2)c1", "Activity": "20%"},
      {"smiles": "Cc1ccc(CNc2ccc3ncc(-c4ccc(O)cc4)n3n2)c(C)c1", "Activity": "20%"},
      {"smiles": "COc1cc(-c2cnc3cnc(-c4ccc5c(c4)OCO5)cn23)ccc1O", "Activity": "20%"},
      {"smiles": "CN(C)c1cccc(-c2cnc3cnc(-c4ccsc4)cn23)c1", "Activity": "50%"},
      {"smiles": "Cc1cc(-c2cn3c(-c4ccncc4)cnc3cn2)cc(C)c1O", "Activity": "20%"},
      {"smiles": "CC(C)N1CCN(c2ccc(-c3cn4c(-c5ccc(O)cc5)cnc4cn3)cc2)CC1", "Activity": "20%"},
      {"smiles": "COc1ccccc1-c1ccc2ncc(-c3cccc(OC(F)(F)F)c3)n2n1", "Activity": "10%"},
      {"smiles": "CC(=O)c1cccc(-c2cnc3cnc(-c4cccnc4)cn23)c1", "Activity": "20%"},
      {"smiles": "COc1ccccc1-c1cn2c(NC(=O)c3ccccc3)cnc2cn1", "Activity": "20%"},
      {"smiles": "Cc1ccc(CNc2ccc3ncc(-c4ccc(C(=O)NCCN(C)C)cc4)n3n2)c(C)c1", "Activity": "20%"},
      {"smiles": "CCOc1ccc(-c2cnc3cccnn23)cc1", "Activity": "10%"},
      {"smiles": "c1cc2c(cc1CNc1ccc3ncc(-c4ccc(N5CCOCC5)cc4)n3n1)OCO2", "Activity": "20%"},
      {"smiles": "CCC(CO)Nc1ccc2ncc(-c3ccccc3Cl)n2n1", "note": "(centres undefined)", "Activity": "10%"},
      {"smiles": "CS(=O)(=O)Nc1cccc(-c2cn3c(-c4cccnc4)cnc3cn2)c1", "Activity": "20%"},
      {"smiles": "c1csc(-c2cnc3cnc(-c4ccncc4)cn23)c1", "Activity": "20%"}
    ]}
  ]
}
